Assays:
[1] = test system: 293 ATXN3/Q75-GFP cells; assay: ATXN3/Q75 aggregation assay in 293 cells (high-content analysis); type: cell-based, human; conditions: 8 hr pretreatment, doxycycline and oxaliplatin 6 days
Method: The isogenic ATXN3/[…]-75 cell line was employed, which was formed from subjecting the Flp-InTM-293 cells to targeting insertion of the pcDNA5/FRT/TO-ATXN3/[…] and […] recombinant plasmids. These cell lines were grown in medium containing 5 μg/mL blasticidin and 100 μg/mL hygromycin (InvivoGen). In addition, the method for culture in establishment of the human SH-SY5Y derived Flp-In host cell line and the formation of the isogenic ATXN3/[…]-75 cell line was the same. […] Then doxycycline (10 μg/mL, BD) and oxaliplatin (5 μM, Sigma) were added for 6 days.

[2] = MTT cytotoxicity assay in SH-SY5Y cells; type: cell-based; conditions: human, one day treatment
Method: (§1) Cells (5×10^4/well in 48-well dishes) were cultivated at 37° C. incubator containing 5% CO2 for 20 hr and treated with different concentrations of the Gardenia jasminoides extract (5-30 mg/mL) or pure compound (100 nM-1 mM). After one day, 20 μL MTT (3,[4,5-dimethylthiazol-2-yl]-2,5-diphenyl-tetrazolium bromide, 5 mg/mL in PBS; Sigma-Aldrich) was added to cells and incubated for 2 hr. The absorbance of the purple formazan dye was measured at 570 nm by a Bio-Tek μQuant Universal Microplate Spectrophotometer.

[3] = test system: SH-SY5Y ATXN3/Q75-GFP cells; assay: ATXN3/Q75 aggregation assay in retinoic acid-differentiated SH-SY5Y cells; type: cell-based, human; conditions: one week
Method: Flp-InTM-293 cells derived from human 293 (Invitrogen) were cultured as described above. The isogenic ATXN3/[…]-75 cell line was employed, which was formed from subjecting the Flp-InTM-293 cells to targeting insertion of the pcDNA5/FRT/TO-ATXN3/[…] and […] recombinant plasmids. These cell lines were grown in medium containing 5 μg/mL blasticidin and 100 μg/mL hygromycin (InvivoGen). In addition, the method for culture in establishment of the human SH-SY5Y derived Flp-In host cell line and the formation of the isogenic ATXN3/[…]-75 cell line was the same. […] After that, cells were stained with Hoechst 33342 (0.1 μg/mL) and aggregation percentage was assessed as described.

[4] = MTT cytotoxicity assay in HEK-293 cells; type: cell-based; conditions: human, one day treatment
Method: as §1

[5] = 1,1-diphenyl-2-picryl hydrazyl (DPPH) radical scavenging assay; type: biochemical; conditions: for DPPH scavenging activity: 10-200 μM tested, data not shown
Method: Then, the scavenging capacity was measured by monitoring the decrease in absorbance at 517 nm by a Thermo Scientific Multiskan GO Microplate Spectrophotometer.

EC50 ([5]; 100 μM DPPH, 30 min room temperature)	Compound	ATXN3/Q75 aggregation as compared to untreated cells ([1]; at 100 nM)	IC50 at 1 day [2]	aggregation reduction in ATXN3/Q75 expressed neuronal cells ([3]; 100 nM)	IC50 at 1 day [4]	aggregation reduction in ATXN3/Q75 expressed neuronal cells ([3]; 500 nM)	DPPH scavenging activity [5]	ATXN3/Q75 aggregation as compared to untreated cells ([1]; at 500 nM)
	O=C(CCCCCCC(=O)Nc1ccccc1)NO [SAHA, suberoylanilide hydroxamic acid, reference compound]	85.9%						
	CC(/C=C/C=C(\C)C(=O)O[C@@H]1O[C@H](CO[C@@H]2O[C@H](CO)[C@@H](O)[C@H](O)[C@H]2O)[C@@H](O)[C@H](O)[C@H]1O)=C\C=C\C=C(C)\C=C\C=C(/C)C(=O)O[C@@H]1O[C@H](CO[C@@H]2O[C@H](CO)[C@@H](O)[C@H](O)[C@H]2O)[C@@H](O)[C@H](O)[C@H]1O [crocin]	81.5%	970 µM	21%	> 1000 µM			
	COC(=O)C1=CO[C@@H](O)[C@@H]2C(CO)=CC[C@H]12 [genipin]		100 µM		580 µM	18%	no detectable DPPH scavenging activity	
	COC(=O)C1=CO[C@@H](O[C@@H]2O[C@H](CO)[C@@H](O)[C@H](O)[C@H]2O)[C@@H]2C(CO)=CC[C@H]12 [geniposide]		> 1000 µM		> 1000 µM	21%	no detectable DPPH scavenging activity	82.3%
27 µM	O=c1c(O)c(-c2ccc(O)cc2)oc2cc(O)cc(O)c12 [kaempferol, reference compound]							
